According to patent publication US7728012B2, “Carboxamide compounds and their use as calpain inhibitors” (Abbott GmbH & Co. KG, priority 2006, dated 2010):

Key:
Assay type in all cases: biochemical
[1] = biological target: T1, calpain-I isolated from human erythrocytes (Homo sapiens, UniProt P07384); experiment: Calpain I kinetic fluorescence enzyme inhibition assay; conditions: apparent Ki from IC50 by Cheng-Prussoff; average of 2 to 4 dose-effect plots
T1 construct: calpain-I—isolated from human erythrocytes; purchased Calbiochem 208713; host or cells: human erythrocytes (tissue isolate)
T1 sequence (P07384 1-714): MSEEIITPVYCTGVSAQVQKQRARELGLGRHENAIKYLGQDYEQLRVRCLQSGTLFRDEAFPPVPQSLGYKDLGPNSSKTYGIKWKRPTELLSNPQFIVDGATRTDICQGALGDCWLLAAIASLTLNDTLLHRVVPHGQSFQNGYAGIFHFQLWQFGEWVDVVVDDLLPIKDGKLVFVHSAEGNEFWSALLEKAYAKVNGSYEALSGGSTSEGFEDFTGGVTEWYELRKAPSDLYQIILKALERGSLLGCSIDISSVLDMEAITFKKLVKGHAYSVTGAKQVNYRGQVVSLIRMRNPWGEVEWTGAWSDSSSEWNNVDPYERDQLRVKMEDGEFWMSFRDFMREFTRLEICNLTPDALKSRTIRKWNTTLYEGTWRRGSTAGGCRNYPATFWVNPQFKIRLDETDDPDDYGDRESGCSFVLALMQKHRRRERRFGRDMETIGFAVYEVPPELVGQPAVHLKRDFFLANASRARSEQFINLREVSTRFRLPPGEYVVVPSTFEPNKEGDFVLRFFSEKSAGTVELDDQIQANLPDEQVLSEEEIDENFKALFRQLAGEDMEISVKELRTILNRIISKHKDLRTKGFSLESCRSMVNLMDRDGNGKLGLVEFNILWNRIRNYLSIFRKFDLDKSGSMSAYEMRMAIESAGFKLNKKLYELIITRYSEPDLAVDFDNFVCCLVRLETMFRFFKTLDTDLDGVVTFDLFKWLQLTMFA
T1 sequence (P04632 1-268 partner): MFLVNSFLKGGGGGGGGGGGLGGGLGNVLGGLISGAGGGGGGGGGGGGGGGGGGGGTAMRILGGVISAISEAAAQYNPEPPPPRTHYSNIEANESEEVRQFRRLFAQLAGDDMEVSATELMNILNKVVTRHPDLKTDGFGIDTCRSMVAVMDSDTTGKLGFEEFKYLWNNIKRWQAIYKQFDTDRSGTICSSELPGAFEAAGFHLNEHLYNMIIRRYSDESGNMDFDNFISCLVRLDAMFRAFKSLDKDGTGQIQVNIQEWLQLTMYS

[2] = biological target: T2, cathepsin B isolated from human liver (Homo sapiens, UniProt P07858); experiment: Cathepsin B kinetic fluorescence enzyme inhibition assay; conditions: selectivity ratio versus calpain I
T2 construct: cathepsin B—isolated from human liver; purchased Calbiochem 219362; host or cells: human liver (tissue isolate)
Method in brief: (§1)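 Cathepsin B (0.25 nM, human liver) with 100 μM Z-Phe-Arg-AMC; L (1 nM, human liver) with 2 μM Z-Phe-Arg-AMC; S (0.5 nM, recombinant) with 20 μM Z-Val-Val-Arg-AMC. pH 6.0 MES buffer, 2.5 mM L-cysteine, room temperature. Kinetic fluorescence (ex 390/em 460 nm); apparent Ki from IC50 by Cheng-Prusoff.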

[3] = biological target: T3, cathepsin K activated from recombinant human procathepsin K (Homo sapiens, UniProt P43235); experiment: Cathepsin K kinetic fluorescence enzyme inhibition assay; conditions: selectivity ratio versus calpain I
T3 construct: purchased Calbiochem 342001; host or cells: E. coli
T3 sequence (P43235 115-329): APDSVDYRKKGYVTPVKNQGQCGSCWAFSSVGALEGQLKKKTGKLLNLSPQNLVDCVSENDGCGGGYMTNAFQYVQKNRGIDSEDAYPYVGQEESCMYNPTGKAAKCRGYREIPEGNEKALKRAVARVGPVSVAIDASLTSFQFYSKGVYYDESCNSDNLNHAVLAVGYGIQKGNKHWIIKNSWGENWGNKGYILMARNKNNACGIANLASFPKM
Experimental: The following solutions and buffers were employed: • HBS (for 40 ml): 800 μl M HEPES; 2.16 ml 100 mM KCl; 4.8 ml 1M NaCl; 3.59 ml 5% glucose; 60 μl μM MgSO4; 400 μl 100 mM Na pyruvate, 28.19 ml water; pH 7.2-7.5. • lysis buffer (for 20 ml): 400 μl M Tris pH 8.2; 2.74 ml 1M NaCl; 520 μl 0.5M EDTA; 2 ml 10% triton X-100; 0.8 ml (=1:25) CompletePlus (1 tablet/2 ml H2O); 200 μl 100 mM Pefabloc; 13.34 ml water, pH 8.2. • TBST (10×) (for 1 l): 100 mM Tris (12.1 g); 1.5M NaCl (87 g); 1% Tween 20 (10 g), adjusted to pH 8. I Enzyme Inhibition In Vitro: • Testing for blockade of the corresponding enzymic activities was carried out by means of kinetic fluorescence assays (excitation 390 nm, emission 460 nm). • Apparent Ki values were calculated from the experimentally determined IC50 values by the Cheng-Prussoff relation assuming a reversible competitive enzyme inhibition. The Km values of the substrates used under the assay conditions indicated above were: 90 μM (Z-Phe-Arg-AMC, cathepsin B), 10 μM (Z-Gly-Pro-Arg-AMC, cathepsin K), 2 μM (Z-Phe-Arg-AMC, cathepsin L), and 30 μM (Z-Val-Val-Arg-AMC, cathepsin S). • The indicated Ki values are averages of the inhibition constants calculated on the basis of 2 to 4 independent dose-effect plots.
The following assays were used: • 1. Calpain I: • 20 nM calpain-I—isolated from human erythrocytes (Calbiochem #208713), 100 μM Suc-Leu-Tyr-AMC (Bachem #1-1355) as substrate in buffer with 62 mM imidazole, 0.3 mM CaCl2, 0.10% CHAPS, 0.05% BSA, 1 mM DTT at pH 7.3 and room temperature. • 2. Cathepsin B: • 0.25 nM cathepsin B—isolated from human liver (Calbiochem #219362), 100 μM Z-Phe-Arg-AMC (Bachem #I-1160) as substrate 50 mM MES, 2 mM EDTA, 0.05% Brij 35, 2.5 mM L-cysteine, pH 6.0, room temperature. • 3. Cathepsin K: • 3 nM cathepsin K—activated from recombinant human procathepsin K from E. coli (Calbiochem #342001), 10 μM Z-Gly-Pro-Arg-AMC (Biomol #P-142) as substrate in 50 mM MES, 2 mM EDTA, 0.05% Brij 35, 2.5 mM L-cysteine, pH 6.0, room temperature. • 4. Cathepsin L: • 1 nM cathepsin L—isolated from human liver (Calbiochem #219402), 2 μM Z-Phe-Arg-AMC (Bachem #1-1160) as substrate in 50 mM MES, 2 mM EDTA, 0.05% Brij 35, 2.5 mM L-cysteine, pH 6.0, room temperature. • 5. Cathepsin S: • 0.5 nM recombinant human cathepsin S from E. coli (Calbiochem #219343), 20 μM Z-Val-Val-Arg-AMC (Bachem #1-1540) as substrate in 50 mM MES, 2 mM EDTA, 0.05% Brij 35, 2.5 mM L-cysteine, pH 6.0, room temperature. • The results of the in vitro determination are indicated in Table 1. The following abbreviations are used in Table 1: • The “Calpain activity” column, ++ stands for a calpain Ki (Ki(calpain)) of ≦40 nM and + means: 40 nM<Ki(Calpain)≦100 nM. • The “Sel. cat. B” column indicates the Ki(cathepsin B)/Ki(calpain) ratio. In this connection, ++ means a Ki(cathepsin B)/Ki(calpain) ratio of ≧30 and + means 10≦Ki(cathepsin B)/Ki(calpain)<30. • The “Sel. cat. K” column indicates the Ki(cathepsin K)/Ki(calpain) ratio. In this connection, ++ means a Ki(cathepsin K)/Ki(calpain) ratio of ≧30 and + means 10≦Ki(cathepsin K)/Ki(calpain)<30. • The “Sel. cat. L” column indicates the Ki(cathepsin L)/Ki(calpain) ratio. In this connection, ++ means a Ki(cathepsin L)/Ki(calpain) ratio of ≧50 and + means 30≦Ki(cathepsin L)/Ki(calpain)<50. • The “Sel. cat. S” column indicates the Ki(cathepsin S)/Ki(calpain) ratio. In this connection, ++ means a Ki(cathepsin S)/Ki(calpain) ratio of ≧100 and + means 50≦Ki(cathepsin S)/Ki(calpain)<100.

[4] = biological target: T4, cathepsin L isolated from human liver (Homo sapiens, UniProt P07711); experiment: Cathepsin L kinetic fluorescence enzyme inhibition assay; conditions: selectivity ratio versus calpain I
T4 construct: cathepsin L—isolated from human liver; purchased Calbiochem 219402; host or cells: human liver (tissue isolate)
Method in brief: as §1

[5] = biological target: T5, recombinant human cathepsin S (Homo sapiens, UniProt P25774); experiment: Cathepsin S kinetic fluorescence enzyme inhibition assay; conditions: selectivity ratio versus calpain I
T5 construct: purchased Calbiochem 219343; host or cells: E. coli
Method in brief: as §1

T4 sequence (P07711 114-333): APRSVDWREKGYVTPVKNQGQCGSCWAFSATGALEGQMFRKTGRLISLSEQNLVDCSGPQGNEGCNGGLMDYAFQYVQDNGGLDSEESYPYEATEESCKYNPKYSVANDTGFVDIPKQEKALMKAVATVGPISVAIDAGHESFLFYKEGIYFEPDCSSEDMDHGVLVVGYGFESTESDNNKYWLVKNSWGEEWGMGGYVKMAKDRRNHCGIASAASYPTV
T5 sequence (P25774 115-331): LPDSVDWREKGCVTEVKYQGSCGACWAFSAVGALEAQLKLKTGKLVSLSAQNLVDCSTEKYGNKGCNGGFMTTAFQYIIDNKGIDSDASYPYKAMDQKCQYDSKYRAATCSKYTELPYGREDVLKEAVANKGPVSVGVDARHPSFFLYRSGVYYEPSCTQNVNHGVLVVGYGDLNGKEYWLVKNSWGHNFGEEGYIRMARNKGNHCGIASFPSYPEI

Molecule	Ki [1]	Sel cat. B (Ki(cathepsin B)/Ki(calpain) ratio) [2]	Sel cat. K (Ki(cathepsin K)/Ki(calpain) ratio) [3]	Sel cat. L (Ki(cathepsin L)/Ki(calpain) ratio) [4]	Sel cat. S (Ki(cathepsin S)/Ki(calpain) ratio) [5]
NC(=O)C(=O)C(Cc1ccccc1)NC(=O)c1cccnc1-n1ccc(-c2ccccc2)n1 (stereo not drawn) [Example 5, N-(3-Amino-1-benzyl-2,3-dioxopropyl)-2-(3-phenyl-1H-pyrazol-1-yl)nicotinamide]	≤ 40 nM	+ (10≦Ki(cathepsin B)/Ki(calpain)<30)	+ (10≦Ki(cathepsin K)/Ki(calpain)<30)	++ (Ki(cathepsin L)/Ki(calpain) ratio of ≧50)	++ (Ki(cathepsin S)/Ki(calpain) ratio of ≧100)
NC(=O)C(=O)C(Cc1ccccc1)NC(=O)c1cccnc1-n1ccc(-c2ccccn2)n1 (stereo not drawn) [Example 35, N-(3-Amino-1-benzyl-2,3-dioxopropyl)-2-(3-pyridin-2-yl-1H-pyrazol-1-yl)nicotinamide]	40 to 100 nM	+ (10≦Ki(cathepsin B)/Ki(calpain)<30)	+ (10≦Ki(cathepsin K)/Ki(calpain)<30)	++ (Ki(cathepsin L)/Ki(calpain) ratio of ≧50)	++ (Ki(cathepsin S)/Ki(calpain) ratio of ≧100)
NC(=O)C(=O)C(Cc1ccccc1)NC(=O)c1cccnc1-n1ccc(-c2ccc(F)cc2)n1 (stereo not drawn) [Example 38, N-(3-Amino-1-benzyl-2,3-dioxopropyl)-2-[3-(4-fluorophenyl)-1H-pyrazol-1-yl]nicotinamide]	40 to 100 nM	+ (10≦Ki(cathepsin B)/Ki(calpain)<30)	+ (10≦Ki(cathepsin K)/Ki(calpain)<30)	++ (Ki(cathepsin L)/Ki(calpain) ratio of ≧50)	++ (Ki(cathepsin S)/Ki(calpain) ratio of ≧100)
COc1ccc(-c2ccn(-c3ncccc3C(=O)NC(Cc3ccccc3)C(=O)C(N)=O)n2)cc1 (stereo not drawn) [Example 48, N-(3-Amino-1-benzyl-2,3-dioxopropyl)-2-[3-(4-methoxyphenyl)-1H-pyrazol-1-yl]nicotinamide]	40 to 100 nM	+ (10≦Ki(cathepsin B)/Ki(calpain)<30)	+ (10≦Ki(cathepsin K)/Ki(calpain)<30)	++ (Ki(cathepsin L)/Ki(calpain) ratio of ≧50)	++ (Ki(cathepsin S)/Ki(calpain) ratio of ≧100)
NC(=O)C(=O)C(Cc1ccc(Cl)cc1)NC(=O)c1cccnc1-n1ccc(-c2ccccc2)n1 (stereo not drawn) [Example 50, N-[3-Amino-1-(4-chlorobenzyl)-2,3-dioxopropyl]-2-(3-phenyl-1H-pyrazol-1-yl)nicotinamide]	40 to 100 nM	+ (10≦Ki(cathepsin B)/Ki(calpain)<30)	+ (10≦Ki(cathepsin K)/Ki(calpain)<30)	+ (30≦Ki(cathepsin L)/Ki(calpain)<50)	+ (50≦Ki(cathepsin S)/Ki(calpain)<100)
NC(=O)C(=O)C(Cc1ccc(OC(F)(F)F)cc1)NC(=O)c1cccnc1-n1ccc(-c2cccc(C(F)(F)F)c2)n1 (stereo not drawn) [Example 134, N-[3-Amino-2,3-dioxo-1-({4-[(trifluoromethyl)oxy]phenyl}methyl)propyl]-2-{3-[3-(trifluoromethyl)phenyl]-1H-pyrazol-1-yl}pyridine-3-carboxamide]		++ (Ki(cathepsin B)/Ki(calpain) ratio of ≧30)	++ (Ki(cathepsin K)/Ki(calpain) ratio of ≧30)	+ (30≦Ki(cathepsin L)/Ki(calpain)<50)	+ (50≦Ki(cathepsin S)/Ki(calpain)<100)
N-{3-Amino-1-[(4-fluorophenyl)methyl]-2,3-dioxopropyl}-2-[3-(2-chloro-3-fluorophenyl)-1H-pyrazol-1-yl]pyridine-3-carboxamide [Example 154]		++ (Ki(cathepsin B)/Ki(calpain) ratio of ≧30)	++ (Ki(cathepsin K)/Ki(calpain) ratio of ≧30)	++ (Ki(cathepsin L)/Ki(calpain) ratio of ≧50)	++ (Ki(cathepsin S)/Ki(calpain) ratio of ≧100)
